Measured values reported in publication PMC5700161, “Structure of human immunoproteasome with a reversible and noncompetitive inhibitor that selectively inhibits activated lymphocytes” (Nature Communications, 2017).
“Also recorded” adds a separate entry of the source. Read-outs that look alike come from different tables or passages of the source.

How the values were obtained:
β1c = β1c (Homo sapiens, UniProt P28072); test: IC50 against β1c of human constitutive proteasome (Z-LLE-AMC)
Description: (§2) IC50s of all compounds against β5i and β5c (Table 2) and against β1i, β2i, β1c, and β2c (Supplementary Table 1) were determined following reported methods[8].

β2i = β2i (Homo sapiens, UniProt P40306); test: IC50 against β2i of human immunoproteasome (Z-VLR-AMC)
Description: as §2

human β5i = human β5i (Homo sapiens, UniProt P20618+P28062); test: IC50 determination against human β5i of i-20S; conditions: for reduction in potency against β5i: in comparing to PKS21221
Description: as §2

β2c = β2c (Homo sapiens, UniProt Q99436); test: IC50 against β2c of human constitutive proteasome (Z-VLR-AMC)
Description: as §2

human β5c = human β5c (Homo sapiens, UniProt P20618+P28074); test: IC50 determination against human β5c of c-20S
Description: as §2

β1i = β1i (Homo sapiens, UniProt P28065); test: IC50 against β1i of human immunoproteasome (Ac-PAL-AMC)
Description: as §2

β5i (i-20S) = target: T1, β5i (i-20S) (Homo sapiens, UniProt P20618+P28062); test: Kinetics studies of modality of inhibition against β5i; assay type: biochemical
T1 construct: purchased Boston Biochem
Description: Data as in d are shown in double reciprocal plots in e, and data from f in g. […] Data are means ± SEM of three independent experiments […]
(§1) With increasing concentrations of PKS21004, both V max and K M decreased (Fig. 1d–g and Supplementary Fig. 1). […] This class thus joins a growing list of noncompetitive proteasome inhibitors[5],[30].
Supplementary Figure 11. Inhibition kinetics of PKS21221 against i-20S β5i. (A) Steady state velocities of the Ac-ANW-AMC hydrolysis at 10, 15, 25, 35 µM by i-20S β5i (0.4 nM) in the presence of PKS21221 at indicated concentrations were determined at 37 °C and plotted by RFU versus substrate concentration (A); values of KM, Ki and α were estimated by PRISM using equation V = (Vmax / (1 + I / (α*Ki))) * S / (KM * (1+ I / Ki) / (1 + I / (α*Ki)) + S); (B) Lineweaver-Burk plot of the data in (A). (C) Plot of KM versus concentrations of PKS21221 indicates a mixed type inhibition. (D) Plot of Vmax versus concentrations of PKS21221.
(1 picture or pasted object on this page, not shown here)

β5c (c-20S) [1] = target: T2, β5c (c-20S) (Homo sapiens, UniProt P20618+P28074); test: Kinetics studies of modality of inhibition against β5c; assay type: biochemical
Description: Data as in d are shown in double reciprocal plots in e, and data from f in g. […] Data are means ± SEM of three independent experiments
as §1

β5c (c-20S) [2] = target: T2, β5c (c-20S); test: Reversibility: dialysis of pre-incubated c-20S and inhibitor; assay type: biochemical; conditions: dialysis of pre-incubated mixture of c-20S and inhibitor
Description: as §1

[3] = read-out: IC50 1c - LLE (β1c), substrate Z-LLE-AMC
[4] = read-out: IC50 2i - VLR (β2i), substrate Z-VLR-AMC
[5] = read-out: IC50 against human β5i
[6] = read-out: IC50 2c - VLR (β2c), substrate Z-VLR-AMC
[7] = read-out: IC50 1i - PAL (β1i), substrate Ac-PAL-AMC
[8] = fit to equation for noncompetitive inhibitors

Structure (SMILES)	IC50 (β1c; [3]) [µM]	IC50 (β2i; [4]) [µM]	IC50 (β2c; [6]) [µM]	IC50 (β1i; [7]) [µM]	inhibitory activity against β5i (in words) (human β5i)	also measured
CC(C)(C)NC(=O)C[C@H](NC(=O)CCc1ccccc1)C(=O)NCCNC(=O)c1cccc2ccccc12 [PKS3080]	> 50	> 50	> 50	> 50	–	IC50 (human β5i; [5]): 0.37 µM; IC50 (human β5c; read-out: IC50 against human β5c): 1.22 µM
CC(C)(C)NC(=O)C[C@H](NC(=O)CCc1ccccc1)C(=O)NCCNC(=O)c1ccc(-c2ccccc2)cc1 [PKS21003]	–	–	–	–	inactive	IC50 (β1c): > 50 µM; IC50 (β2i): > 50 µM; IC50 (human β5i): > 100 µM; IC50 (β2c): > 50 µM; IC50 (human β5c): > 100 µM; inhibitory activity against β5c (in words) (human β5c): inactive; IC50 (β1i): > 50 µM
CC(C)(C)NC(=O)C[C@H](NC(=O)CCc1ccccc1)C(=O)NCCNC(=O)c1cccc(-c2ccccc2)c1 [PKS21004]	–	–	–	–	–	α for β5i (αi-20S) (β5i (i-20S)): ≈ 0.28; α for β5i (β5i (i-20S); as printed in legend of Fig. 1): 0.28; Ki (β5i (i-20S); [8]): 0.077 µM; modality of inhibition of β5i (β5i (i-20S); versus substrate): noncompetitively; IC50 (β1c): > 50 µM; IC50 (β2i): > 50 µM; α for β5c (αc-20S) (β5c (c-20S) [1]): 0.65 and ≈ 0.65; Ki (β5c (c-20S) [1]; [8]): 0.55 µM; modality of inhibition of β5c (β5c (c-20S) [1]; versus substrate): noncompetitively; Hill coefficient constant, inhibition of β5i (human β5i): ~ 1; IC50 (human β5i): 0.058 µM; IC50 (β2c): > 50 µM; reversibility of β5c inhibition; β5c activity after dialysis (β5c (c-20S) [2]): reversibly inhibits; also recorded: fully restored; Hill coefficient constant, inhibition of β5c (human β5c): ~ 1; IC50 (human β5c): 0.326 µM; IC50 (β1i): > 50 µM
CC(CNC(=O)c1cccc(-c2ccccc2)c1)NC(=O)[C@H](CC(=O)NC(C)(C)C)NC(=O)CCc1ccccc1 (some centres unmarked) [PKS21018]	> 50	> 50	> 50	> 50	–	–
CC(C)(C)NC(=O)C[C@H](NC(=O)CCc1ccccc1)C(=O)NCCNC(=O)c1ccc2ccccc2c1 [PKS21025]	> 50	> 50	> 50	> 50	–	selectivity for β5i over β5c (human β5i): 26 fold; improvement of potency against β5i (human β5i; relative to PKS3080): 3 fold
CC(C)(C)NC(=O)C[C@H](NC(=O)CCc1ccccc1)C(=O)NCCNC(=O)c1cccc(-c2ccc(F)cc2)c1 [PKS21026]	> 50	> 50	> 50	> 50	–	–
CC(C)(C)NC(=O)C[C@H](NC(=O)CCc1ccccc1)C(=O)NCCNC(=O)c1cccc(-c2ccc(C#N)cc2)c1 [PKS21028]	> 50	> 50	> 50	> 50	–	–
CC(C)(C)NC(=O)C[C@H](NC(=O)CCc1ccccc1)C(=O)NCCNC(=O)c1cc(-c2ccccc2F)ccc1F [PKS21187]	> 50	> 50	> 50	> 50	–	selectivity for β5i over β5c (human β5i): ~ 20 fold; IC50 (human β5i; [5]): 0.015 µM
CC(C)(C)NC(=O)C[C@H](NC(=O)CCc1ccccc1)C(=O)NCCNC(=O)c1cc(-c2cccc(F)c2)ccc1F [PKS21195]	> 50	> 50	> 50	> 50	–	–
CC(C)(C)NC(=O)C[C@H](NC(=O)CCc1ccccc1)C(=O)NCCNC(=O)c1cc(-c2ccccc2)ccc1F [PKS21196]	> 50	> 50	> 50	> 50	–	–
CC(C)(C)NC(=O)C[C@H](NC(=O)OC(C)(C)C)C(=O)NCCNC(=O)c1cc(-c2ccccc2F)ccc1F [PKS21277]	> 50	> 50	> 50	> 50	modestly potent	selectivity for β5i over β5c (human β5i): 36 fold
CC(C)(C)OC(=O)N[C@@H](CC(N)=O)C(=O)NCCNC(=O)c1cc(-c2ccccc2F)ccc1F [PKS21281]	> 50	> 50	> 50	> 50	abolished the inhibitory activities	inhibitory activity against β5c (in words) (human β5c): abolished the inhibitory activities
Cc1ccc(S(=O)(=O)N[C@@H](CC(N)=O)C(=O)NCCNC(=O)c2cc(-c3ccccc3F)ccc2F)cc1 [PKS21288]	> 50	> 50	> 50	> 50	eliminated inhibitory activity	inhibitory activity against β5c (in words) (human β5c): eliminated inhibitory activity
Cc1ccc(S(=O)(=O)NCC(=O)NCCNC(=O)c2cc(-c3ccccc3F)ccc2F)cc1 [PKS21289]	> 50	> 50	> 50	> 50	eliminated inhibitory activity	inhibitory activity against β5c (in words) (human β5c): eliminated inhibitory activity
Cc1ccc(S(=O)(=O)N[C@@H](C)C(=O)NCCNC(=O)c2cc(-c3ccccc3F)ccc2F)cc1 [PKS21290]	> 50	> 50	> 50	> 50	eliminated inhibitory activity	inhibitory activity against β5c (in words) (human β5c): eliminated inhibitory activity
CC(C)(C)NC(=O)C[C@H](NS(=O)(=O)C1CC1)C(=O)NCCNC(=O)c1cc(-c2ccccc2F)ccc1F [PKS21293]	> 50	> 50	> 50	> 50	–	selectivity for β5i over β5c (human β5i): 64 fold; reduction in potency against β5i (human β5i): 3.7 fold
CC(=O)N[C@@H](CC(=O)NC(C)(C)C)C(=O)NCCNC(=O)c1cc(-c2ccccc2F)ccc1F [PKS21294]	> 50	> 50	> 50	> 50	–	reduction in potency against β5i (human β5i): 150 fold; reduction in potency against β5c (human β5c; in comparing to PKS21221): 120 fold
